# Patent publication US9750784B2 (priority 2013, dated 2017)
# Square brackets hold non-standard residues; d marks the D form. Peptide text beside a SMILES is read from it. * marks the point of attachment. Sta = CC(C)C[C@H](N)[C@@H](O)CC(=O)O; Isovaleryl = CC(C)CC(=O)*
# How the values were obtained:
# [1] = target: T1, cathepsin D isolated from the human liver (Homo sapiens, UniProt P07339); experiment: In-vitro fluorescence assay for identification of cathepsin D inhibitors; type: biochemical; settings: pH 5.5
# T1 construct: cathepsin D isolated from the human liver (Sigma-Aldrich); purchased Sigma-Aldrich; host or cells: human liver (tissue-derived)
# Experimental: In order to identify modulators of cathepsin D activity, a continuous enzymatic test was carried out with a synthetic peptide which carries a fluorescent group (MCA=(7-methoxycoumarin-4-yl)acetyl) which is quenched by energy transfer from a Dpn (2,4 dinitrophenyl) group on the same molecule, in Greiner 384-well nb microtitre plates. Cleavage of the peptidic substrate by cathepsin D causes an increase in the fluorescence intensity. In order to determine the efficacy of substances, the time-dependent increase in the fluorescence intensity in the presence of the substance was compared with the time-dependent increase in fluorescence in the absence of substances. […] The enzyme employed was cathepsin D isolated from the human liver (Sigma-Aldrich) in a final concentration of 1.4 nM. The test was carried out in 100 mM sodium acetate buffer, 1.25% (v/v) of DMSO, 0.25% (w/v) of Chaps, pH 5.5. […] After carrying out a starting-point fluorescence measurement (excitation wavelength 340 nm/emission wavelength 450 nm) using an Envision multilabel reader (Perkin Elmer), the reaction was incubated at room temperature for 60 min. The amount of peptide fragment cleaved off during the reaction time was subsequently measured by determination of the increase in the fluorescence intensity at 450 nm (excitation wavelength 340 nm).
# Cartilage penetration = type: in vitro ADME
# [2] = Toxicity and genotoxicity
# [3] = test system: carrageenan-induced inflammation of the rat knee joint; experiment: Anti-hyperalgesic action in animals (carrageenan injected intraarticularly into rat knee joint, Hargreaves test); type: in vivo; settings: intraarticular 30 minutes before CAR
# Experimental: In order to induce an inflammation reaction, a carrageenan solution (CAR, 1%, 50 μl) was injected intraarticularly on one side into a rat knee joint. The uninjected side was used for control purposes. Six animals per group were used. The […] was determined by means of a micrometer screw (medial-lateral on the knee joint), and the thermal hyperalgesia was determined by means of a directed infrared light source by the Hargreaves method (Hargreaves et al. 1988) on the sole of the foot. Since the site of inflammation (knee joint) is different from the site of measurement (sole of the paw), use is made here of the term secondary thermal hyperalgesia, the mechanisms of which is of importance for the discovery of effective analgesics.
# Experimental description of thermal hyperalgesia (Hargreaves test): the experimental animal is placed in a plastic chamber on a quartz sheet. Before testing, the experimental animal is firstly given about 5-15 minutes time to familiarise itself with the environment. […] Light reflected by the paw is recorded as long as the experimental animal sits still. Withdrawal of the paw interrupts this reflection, after which the infrared light source is switched off and the time from switching on to switching off is recorded. […]
# [4] = Stability of pepstatin in bovine synovial fluid; type: in vitro ADME; settings: pooled bovine synovial fluid, 37° C., initial 1 μM
# Experimental: In order to check the stability of individual compounds, a pool of 4 different bovine synovial fluids is mixed. To this end, about 1 ml per SF are used. The mixture is prepared directly in a 5 ml glass vessel in order to minimise any absorption effects. The SFs are mixed thoroughly, but carefully. No air bubbles or foam should form. To this end, a vortex unit is used at the lowest speed. The compounds to be tested are tested in an initial concentration (unless requested otherwise) of 1 μM. After addition of the substance, the batch is again mixed thoroughly and carefully. For visual monitoring, all SF batches are photographed, and the pictures are filed in the eLabBio file for the corresponding experiment. The batches are incubated in the incubator for 48 h at 37° C. and 7.5% CO2.
# The sampling is carried out after the pre-agreed times (unless requested otherwise, see below). 4×200 μl of the SF are removed from the mixture at each point in time and transferred directly into 0.5 ml “low-binding” Eppendorf vessels. […]
# The samples are stored in “low-binding” Eppendorf vessels at −20° C. The samples are subsequently measured quantitatively. […]
# The concentrations measured (ng/ml) are plotted against time in a graph (Graph Pad Prism®). The percentage stability of the substance is determined here. […]
# [5] = Pharmacokinetic data after intraarticular injection; type: in vivo, Lister hooded rats; settings: for Average joint diameter [mm]: rat knee, about 700 μg suspension intraarticular
# Experimental: For this study (KK-Rat-12-003), 14 male Lister hooded rats were used. All rats were given a single intraarticular injection into both knee joints at time “0”. An injection consisted of 30 μl in which about 700 μg of compound were homogeneously suspended (suspension=compound in 0.5% Methocel K4M with 0.25% Tween20 in PBS). The suspension was administered via a 25 G cannula. […] At each point in time indicated in Table 2, animals were sacrificed, the knee joints were prepared (removal of skin and muscle tissue) and frozen for further processing.
# The deep-frozen joints were briefly thawed, comminuted as well as possible using bone scissors, and 4 times the volume of 80% ethanol was subsequently added. The mixture was subsequently homogenised using an Ultraturrax, the extract was shaken at RT for 20 min and then stored at −20° C. for at least 30 min. The mixture was then centrifuged at 13,000 rpm for 5 min, a 10 μl aliquot of the supernatant was diluted 1:5000 with internal standard solution, transferred into a PCR plate and analysed.
# 20 μl of internal standard solution were added to 20 μl of plasma, 100 μl of methanol were added, and the mixture was shaken for 5 min. The extracts were then stored at −20° C. for at least 30 min and subsequently centrifuged at 13,000 rpm for 5 min. 80 μl of the supernatant were transferred into a PCR plate and analysed.
# All samples were analysed with the aid of a UPLC-MS/MS system.
# [6] = Pharmacokinetic data after intravenous and oral administration; type: in vivo, Wistar rats; settings: Wistar rat
# Experimental: The test substances were dissolved in DMSO/PEG200/water (2/60/38 v/v) with a final concentration of 0.8 mg/ml, and a dose of 0.2 mg/kg i.v. and 0.5 mg/kg orally was administered. […] The blood samples were collected in centrifuge tubes containing Li heparin and centrifuged at about 10,000 g at 4° C. for 3 min. The plasma obtained therefrom was immediately frozen at −20° C. and stored until analysis. The plasma concentrations were determined by means of a standard LC-MS/MS method. The pharmacokinetic parameters (Clp, Vss, T1/2, F) were determined via an NCA analysis.
# ACLT tMx arthrosis model = experiment: Efficacy in vivo in arthrosis, ACLT tMx model; design: species or system rats; settings: rat ACLT tMx, 1 mg in 30 μl intraarticular, 6 weeks, histological assessment
# Experimental: Rats were selected as experimental animals. After shaving and disinfection, the operation area is opened by means of a medial skin cut with a length of about 1 cm. The knee joint capsule is prepared and the medial patellar ligament is exposed. After opening of the joint capsule, cutting of the medial parapatellar ligaments and lateral displacement of the patella, the anterior cruciate ligament is cut using a curved knife with a blunt end (ACLT=anterior cruciate ligament transection). The anterior and posterior ligaments holding the meniscus in place are subsequently prepared and cut and the meniscus is removed tMx (resection of the medial meniscus). After repositioning of the patella, the joint is finally rinsed with sterile saline solution in order to remove any blood coagulum that may have formed. The patella is repositioned, and the medial patellar ligament is re-fixed by means of continuous suture with sealing of the capsule. The muscles are likewise sutured. The skin is subsequently closed by means of single stitches. The operation duration is about 10 minutes. The postoperative trial duration was 6 weeks. For intraarticular injection, the animals are anaesthetised with 1.5-2% by vol. of isoflurane. […] Two sections in the region of the exposure zone were selected from each animal and assessed by two experienced people using an assessment system. […]
# [7] = In vitro microdialysis in bovine synovial fluid; type: in vitro ADME; settings: 3 mg per ml, 6 kDa membrane
# Source text: Since the synovial fluid on the one hand represents a complex matrix for the analytical determination of peptides and on the other hand only the free, i.e. non-protein-bound medicament fraction is relevant for the action, the microdialysis method was employed. The eluate obtained from the microdialysis enables analysis of free medicament levels from the complex matrix of the synovial fluid. The reason for this is that a barrier membrane (microdialysis membrane) which only molecules up to a certain size is able to pass through is employed. This “pore size” determines the concentration of the medicament in the eluate besides the flow rate of the eluate and the free concentration of medicament present in the synovial fluid as driving force for material exchange.
# (§1) For these investigations, microdialysis probes from CMA (reference number 000082; CMA 7; microdialysis sample 1 mm 3/pkg) fitted with a cuprophane membrane and having a pore size of 6 kDa were used. The eluate flow rate was 0.5 μl/min.
# Firstly, release kinetics in bovine synovial fluid were investigated and compared with triamcinolone (Triam Injekt® 20 mg)—a medicament approved for intraarticular injection. […] 3 mg of medicament per ml of synovial fluid were employed in a glass vessel, which corresponds approximately to the concentration conditions after intraarticular injection into the knee joint.
# [8] = In vivo joint microdialysis in guinea pig knee joint; design: species or system guinea pigs (Dunkin Hartley); settings: 1 mg/joint in 50 μl as suspension, microdialysis eluates
# Experimental: as §1
# [9] = test system: cartilage explant cultures; settings: pH 5.5, explant cultures (mouse, cow or human); cited from earlier work
# [10] = pooled synovial fluid of patients, Powell et al. Table II; cited from earlier work
# T1 sequence (P07339 65-161 limits assumed): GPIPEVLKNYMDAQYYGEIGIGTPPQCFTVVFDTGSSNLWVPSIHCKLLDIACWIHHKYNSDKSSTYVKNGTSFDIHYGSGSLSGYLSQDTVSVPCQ
# T1 sequence (P07339 169-412 limits assumed): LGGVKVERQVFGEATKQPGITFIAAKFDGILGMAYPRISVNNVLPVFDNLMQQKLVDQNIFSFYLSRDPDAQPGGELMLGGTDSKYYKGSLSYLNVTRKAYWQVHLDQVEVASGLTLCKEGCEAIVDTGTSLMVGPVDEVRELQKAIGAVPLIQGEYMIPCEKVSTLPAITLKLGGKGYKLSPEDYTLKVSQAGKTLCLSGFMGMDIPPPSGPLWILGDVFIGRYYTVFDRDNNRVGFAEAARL
molecule,measurement,setting,value
"CC(C)CC(=O)N[C@H](C(=O)N[C@H](C(=O)N[C@@H](CC(C)C)[C@@H](O)CC(=O)N[C@@H](C)C(=O)N[C@@H](CC(C)C)[C@@H](O)CC(=O)O)C(C)C)C(C)C [Pepstatin, (3S,4S)-3-hydroxy-4-[(S)-2-((3S,4S)-3-hydroxy-6-methyl-4-{(S)-3-methyl-2-[(S)-3-methyl-2-(3-methyl-butyrylamino)butyrylamino]butyrylamino}heptanoylamino)-propionylamino]-6-methylheptanoic acid] (Isovaleryl-VV[Sta]A[Sta]-OH)",inhibition of cathepsin D (in words),[1],nanomolar range
same,cartilage penetration,Cartilage penetration,good
same,toxicity or genotoxicity,[2],no measurable toxicity or genotoxicity
same,reduction of thermal hyperalgesia,"[3]; rat, Hargreaves test",able to reduce the extent of thermal hyperalgesia as a function of the dose
same,period of stability in synovial fluid,[4],at least two weeks
same,Average joint diameter [mm],[5]; 0 days after injection,10.08 mm
same,Average joint diameter [mm],[5]; 1 day after injection,10.88 mm
same,Average joint diameter [mm],[5]; 2 days after injection,10.50 mm
same,Average joint diameter [mm],[5]; 4 days after injection,10.12 mm
same,Average joint diameter [mm],[5]; 7 days after injection,10.35 mm
same,Average joint diameter [mm],[5]; 9 days after injection,10.14 mm
same,Average joint diameter [mm],[5]; 11 days after injection,10.37 mm
same,Average joint diameter [mm],[5]; 13 days after injection,10.24 mm
same,Average joint diameter [mm],[5]; 15 days after injection,10.45 mm
same,Average joint diameter [mm],[5]; 20 days after injection,10.18 mm
same,Average joint diameter [mm],[5]; 27 days after injection,10.50 mm
same,systemic exposure,"[5]; rat, intraarticular administration of a suspension",very low
same,time after administration up to which detectable in the plasma,"[5]; rat, intraarticular suspension, very low concentration",up to 28 days
same,"changes of in-life parameters (body weight, knee swelling, relieving postures)","[5]; rat, single intraarticular injection of about 700 μg suspension into both knee joints",No peculiarities
same,plasma concentrations after oral administration,[6]; 0.5 mg/kg orally,below the detection limit
same,clearance,[6]; i.v. 0.2 mg/kg,> 100 % liver blood flow
same,distribution volume,[6]; i.v. 0.2 mg/kg,average
same,half-life,"[6]; male, plasma, iv, i.v. 0.2 mg/kg",~8.4 min
same,efficacy in vivo in arthrosis,ACLT tMx arthrosis model,significant efficacy
same,levels of unbound medicament in microdialysis eluate,[7],very high levels
same,time after intraarticular injection up to which significant levels are detectable in the joint,[8],up to 14 days
same,inhibition of autodigestion of the cartilage,[9],inhibited virtually completely
"CC(C)c1nc(CN(C)C(=O)N[C@H](C(=O)N[C@@H](Cc2ccccc2)C[C@H](O)[C@H](Cc2ccccc2)NC(=O)OCc2cncs2)C(C)C)cs1 [ritonavir, reference compound]",inhibition of autodigestion of the cartilage,[9],inhibited virtually completely
"C[C@]12C=CC(=O)C=C1CC[C@H]1[C@@H]3C[C@@H](O)[C@](O)(C(=O)CO)[C@@]3(C)C[C@H](O)[C@@]12F [TAC, Triamcinolone, reference compound]",reduction of CAR-induced swelling,"[3]; rat knee joint, TAC 10 μg/joint",capable of reducing
pertussis toxin,half life in synovial fluid,[10],barely two days
